Results published in patent US9260467B2, “Sialic acid dimers” (priority 2011, dated 2016).

Each compound was assayed against T1, Siglec-2 (CD22) (Homo sapiens, UniProt P20273) (assay: new affinity assay: displacement of biotinylated compound 155 from sialidase-treated Daudi cells, FACS with streptavidin-PE). Settings: Table II; rIP values set relative to compound 38; Daudi cells, displacement of compound 155.
T1 sequence (P20273 20-847): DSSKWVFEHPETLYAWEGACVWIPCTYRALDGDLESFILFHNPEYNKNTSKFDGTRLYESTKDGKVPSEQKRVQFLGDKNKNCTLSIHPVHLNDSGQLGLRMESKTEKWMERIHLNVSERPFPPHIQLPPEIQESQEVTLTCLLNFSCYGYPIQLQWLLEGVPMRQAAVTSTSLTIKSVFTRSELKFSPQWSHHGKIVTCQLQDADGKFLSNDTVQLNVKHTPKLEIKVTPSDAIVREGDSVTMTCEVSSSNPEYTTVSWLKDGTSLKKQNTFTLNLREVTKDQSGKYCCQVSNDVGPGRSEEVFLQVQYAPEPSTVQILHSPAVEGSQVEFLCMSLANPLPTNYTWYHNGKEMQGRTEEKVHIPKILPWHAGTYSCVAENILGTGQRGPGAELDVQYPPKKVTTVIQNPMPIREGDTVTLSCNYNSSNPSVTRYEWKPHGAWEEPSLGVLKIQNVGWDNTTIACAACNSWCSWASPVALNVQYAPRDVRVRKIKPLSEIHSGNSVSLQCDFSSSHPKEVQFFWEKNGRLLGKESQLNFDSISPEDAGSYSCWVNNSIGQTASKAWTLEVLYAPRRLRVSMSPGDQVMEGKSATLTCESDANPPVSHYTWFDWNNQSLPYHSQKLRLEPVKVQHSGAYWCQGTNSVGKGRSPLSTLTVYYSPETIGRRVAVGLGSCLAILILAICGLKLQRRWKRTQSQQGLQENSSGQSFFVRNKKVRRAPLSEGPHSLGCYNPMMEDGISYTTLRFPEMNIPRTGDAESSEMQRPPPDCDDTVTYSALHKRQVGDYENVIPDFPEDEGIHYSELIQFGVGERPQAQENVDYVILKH
Type: binding
Parameters: endogenous in cells; host or cells: Daudi (human B-cell lymphoma line)
Description: To determine the affinity of the compound of the formula (I), approximately 5×10^6 to 2×10^8 cells of the human B-cell lymphoma line “Daudi” were incubated with sialidase (A. ureafaciens) at 37° C. for 1 h (final concentration 0.1 unit/ml). […] Batches of 1-2×10^6 cells were transferred to sample vessels, and incubated on ice for 15 min with serial concentrations (10-fold dilutions, 1 mM to 1×10^−7 mM) of the substance under measurement (inhibitor). The reaction volume was 50 μl. Then 50 microliters of compound 155 (4-micromolar) were added, and incubation took place for 20 min Washing with FACS buffer (PBS, 0.1 BSA, 0.01% sodium azide) was followed by incubation with streptavidin-PE in the dark for 15 min, followed by washing and measurement of the bound amount of […] via the streptavidin-PE in the FACS. For the determination of 0% displacement of the compound 155, cells without inhibitor were measured. For the determination of 100% displacement, cells were measured without compound 155 and without inhibitor. For each assay, four substances and one reference were measured. The IC50 values determined in each assay were subsequently converted into values of rIP (relative Inhibitory Potency). […]

Q: How did the rIP turn out when `CC(=O)N[C@H]1[C@H]([C@H](O)[C@H](O)CNc2c(NCc3ccccc3)c(=O)c2=O)O[C@@](OCCCSCCNC(=O)c2ccc(C(=O)NCCSCCCO[C@]3(C(=O)[O-])C[C@H](O)[C@@H](NC(C)=O)[C@H]([C@H](O)[C@H](O)CNc4c(NCc5ccccc5)c(=O)c4=O)O3)cc2)(C(=O)[O-])C[C@@H]1O.[Na+].[Na+]` [Compound 134] was run?
A: 70

Q: With `CC(=O)N[C@H]1[C@H]([C@H](O)[C@H](O)CNC(=O)c2ccc(-c3cccs3)cc2)O[C@@](OCCCSCCNC(=O)c2ccc(C(=O)NCCSCCCO[C@]3(C(=O)[O-])C[C@H](O)[C@@H](NC(C)=O)[C@H]([C@H](O)[C@H](O)CNC(=O)c4ccc(-c5cccs5)cc4)O3)cc2)(C(=O)[O-])C[C@@H]1O.[Na+].[Na+]` [Compound 80] as the compound, how does the rIP read?
A: 14342

Q: With `CC(=O)N[C@H]1[C@H]([C@H](O)[C@H](O)CNC(=O)c2ccc(-c3ccccc3)cc2)O[C@@](OCCCSCCNC(=O)CSSCC(=O)NCCSCCCO[C@]2(C(=O)[O-])C[C@H](O)[C@@H](NC(C)=O)[C@H]([C@H](O)[C@H](O)CNC(=O)c3ccc(-c4ccccc4)cc3)O2)(C(=O)[O-])C[C@@H]1O.[Na+].[Na+]` [Compound 13] as the compound, how does the rIP read?
A: 251

Q: With `CC(=O)N[C@H]1[C@H]([C@H](O)[C@H](O)CNC(=O)c2ccc(-c3ccccc3)cc2)O[C@@](OCCC[S+]([O-])CCNC(=O)c2ccc(C(=O)NCC[S+]([O-])CCCO[C@]3(C(=O)[O-])C[C@H](O)[C@@H](NC(C)=O)[C@H]([C@H](O)[C@H](O)CNC(=O)c4ccc(-c5ccccc5)cc4)O3)cc2)(C(=O)[O-])C[C@@H]1O.[Na+].[Na+]` (some centres unmarked) [Compound 132] as the compound, how does the rIP read?
A: 212

Q: Which rIP does the source give for `CC(=O)N[C@H]1[C@H]([C@H](O)[C@H](O)CNC(=O)Cc2ccc3ccccc3c2)O[C@@](OCCCSCCNC(=O)c2ccc(-c3ccc(C(=O)NCCSCCCO[C@]4(C(=O)[O-])C[C@H](O)[C@@H](NC(C)=O)[C@H]([C@H](O)[C@H](O)CNC(=O)Cc5ccc6ccccc6c5)O4)cc3)cc2)(C(=O)[O-])C[C@@H]1O.[Na+].[Na+]` [Compound 127] here?
A: 74

Q: Which rIP does the source give for `CC(=O)N[C@H]1[C@H]([C@H](O)[C@H](O)CNC(=O)c2ccc(-c3ccccc3)cc2)O[C@@](OCCCSCCNC(=O)Cc2ccc(CC(=O)NCCSCCCO[C@]3(C(=O)[O-])C[C@H](O)[C@@H](NC(C)=O)[C@H]([C@H](O)[C@H](O)CNC(=O)c4ccc(-c5ccccc5)cc4)O3)cc2)(C(=O)[O-])C[C@@H]1O.[Na+].[Na+]` [Compound 28] here?
A: 129

Q: For `COc1ccccc1-c1ccc(C(=O)NC[C@@H](O)[C@@H](O)[C@@H]2O[C@@](OCCCSCCNC(=O)c3ccc(C(=O)NCCSCCCO[C@]4(C(=O)[O-])C[C@H](O)[C@@H](NC(C)=O)[C@H]([C@H](O)[C@H](O)CNC(=O)c5ccc(-c6ccccc6OC)cc5)O4)cc3)(C(=O)[O-])C[C@H](O)[C@H]2NC(C)=O)cc1.[Na+].[Na+]` [Compound 74], which rIP is on record?
A: 27

Q: How did the rIP turn out when `CC(=O)N[C@H]1[C@H]([C@H](O)[C@H](O)CNC(=O)c2ccc(-c3ccccc3)cc2)O[C@@](OCCCSCCNC(=O)c2ccccc2-c2ccccc2C(=O)NCCSCCCO[C@]2(C(=O)[O-])C[C@H](O)[C@@H](NC(C)=O)[C@H]([C@H](O)[C@H](O)CNC(=O)c3ccc(-c4ccccc4)cc3)O2)(C(=O)[O-])C[C@@H]1O.[Na+].[Na+]` [Compound 35] was run?
A: 717

Q: `CC(=O)N[C@H]1[C@H]([C@H](O)[C@H](O)CNC(=O)c2ccc(-c3ccccc3)cc2)O[C@@](OCCCSCCC(=O)Nc2cccc(NC(=O)CCSCCCO[C@]3(C(=O)[O-])C[C@H](O)[C@@H](NC(C)=O)[C@H]([C@H](O)[C@H](O)CNC(=O)c4ccc(-c5ccccc5)cc4)O3)c2)(C(=O)[O-])C[C@@H]1O.[Na+].[Na+]` [Compound 41] was tested. Which rIP did it give?
A: 423

Q: `CC(=O)N[C@H]1[C@H]([C@H](O)[C@H](O)CNC(=O)c2ccc(-c3ccccc3)cc2)O[C@@](NC(=O)CCCCCNC(=O)c2ccc(C(=O)NCCCCCC(=O)N[C@]3(C(=O)[O-])C[C@H](O)[C@@H](NC(C)=O)[C@H]([C@H](O)[C@H](O)CNC(=O)c4ccc(-c5ccccc5)cc4)O3)cc2)(C(=O)[O-])C[C@@H]1O.[Na+].[Na+]` [Compound 116] was tested. Which rIP did it give?
A: <1

Q: Which rIP does the source give for `CC(=O)N[C@H]1[C@H]([C@H](O)[C@H](O)CNC(=O)c2ccc(-c3ccc([N+](=O)[O-])cc3[N+](=O)[O-])c([N+](=O)[O-])c2)O[C@@](OCCCSCCNC(=O)c2ccc(C(=O)NCCSCCCO[C@]3(C(=O)[O-])C[C@H](O)[C@@H](NC(C)=O)[C@H]([C@H](O)[C@H](O)CNC(=O)c4ccc(-c5ccc([N+](=O)[O-])cc5[N+](=O)[O-])c([N+](=O)[O-])c4)O3)cc2)(C(=O)[O-])C[C@@H]1O.[Na+].[Na+]` [Compound 69] here?
A: 14

Q: For `CC(=O)N[C@H]1[C@H]([C@H](O)[C@H](O)CNC(=O)c2ccc(-c3ccccc3)cc2)O[C@@](OCCCSCCNC(=O)Nc2ccc(NC(=O)NCCSCCCO[C@]3(C(=O)[O-])C[C@H](O)[C@@H](NC(C)=O)[C@H]([C@H](O)[C@H](O)CNC(=O)c4ccc(-c5ccccc5)cc4)O3)cc2)(C(=O)[O-])C[C@@H]1O.[Na+].[Na+]` [Compound 49], which rIP is on record?
A: 626

Q: How did the rIP turn out when `CC(=O)N[C@H]1[C@H]([C@H](O)[C@H](O)CNC(=O)c2ccc(-c3ccc(C(=O)[O-])cc3)cc2)O[C@@](OCCCSCCNC(=O)c2ccc(C(=O)NCCSCCCO[C@]3(C(=O)[O-])C[C@H](O)[C@@H](NC(C)=O)[C@H]([C@H](O)[C@H](O)CNC(=O)c4ccc(-c5ccc(C(=O)[O-])cc5)cc4)O3)cc2)(C(=O)[O-])C[C@@H]1O.[Na+].[Na+].[Na+].[Na+]` [Compound 68] was run?
A: 5

Q: With `CC(=O)N[C@H]1[C@H]([C@H](O)[C@H](O)CNC(=O)c2ccc(-c3ccccc3)cc2)O[C@@](OCCCSCCC(=O)NCc2ccc(CNC(=O)CCSCCCO[C@]3(C(=O)[O-])C[C@H](O)[C@@H](NC(C)=O)[C@H]([C@H](O)[C@H](O)CNC(=O)c4ccc(-c5ccccc5)cc4)O3)cc2)(C(=O)[O-])C[C@@H]1O.[Na+].[Na+]` [Compound 44] as the compound, how does the rIP read?
A: 177

Q: Which rIP does the source give for `CC(=O)N[C@H]1[C@H]([C@H](O)[C@H](O)CNC(=O)c2ccc(-c3cccs3)s2)O[C@@](OCCCSCCNC(=O)c2ccc(C(=O)NCCSCCCO[C@]3(C(=O)[O-])C[C@H](O)[C@@H](NC(C)=O)[C@H]([C@H](O)[C@H](O)CNC(=O)c4ccc(-c5cccs5)s4)O3)cc2)(C(=O)[O-])C[C@@H]1O.[Na+].[Na+]` [Compound 62] here?
A: 203

Q: With `CC(=O)N[C@H]1[C@H]([C@H](O)[C@H](O)CNC(=O)c2ccc(-c3ccccc3)cc2)O[C@@](OCCCSCCC(=O)NCCCCCCNC(=O)CCSCCCO[C@]2(C(=O)[O-])C[C@H](O)[C@@H](NC(C)=O)[C@H]([C@H](O)[C@H](O)CNC(=O)c3ccc(-c4ccccc4)cc3)O2)(C(=O)[O-])C[C@@H]1O.[Na+].[Na+]` [Compound 43] as the compound, how does the rIP read?
A: 15

Q: `CC(=O)N[C@H]1[C@H]([C@H](O)[C@H](O)CNC(=O)c2ccc(-c3ccccc3)cc2)O[C@@](OCCCSCCNC(=O)CCC(=O)NCCSCCCO[C@]2(C(=O)[O-])C[C@H](O)[C@@H](NC(C)=O)[C@H]([C@H](O)[C@H](O)CNC(=O)c3ccc(-c4ccccc4)cc3)O2)(C(=O)[O-])C[C@@H]1O.[Na+].[Na+]` [Compound 36] was tested. Which rIP did it give?
A: 23

Q: `CC(=O)N[C@H]1[C@H]([C@H](O)[C@H](O)CNC(=O)c2ccc(-c3ccccc3)cc2)O[C@@](OCCCSCCNC(=O)c2ccc(C(=O)NCCSCCCO[C@]3(C(=O)[O-])C[C@H](O)[C@@H](NC(C)=O)[C@H]([C@H](O)[C@H](O)CNC(=O)c4ccc(-c5ccccc5)cc4)O3)s2)(C(=O)[O-])C[C@@H]1O.[Na+].[Na+]` [Compound 29] was tested. Which rIP did it give?
A: 2061

Q: `CC(=O)N[C@H]1[C@H]([C@H](O)[C@H](O)CNC(=O)c2ccc(-c3ccccc3)cc2)O[C@@](OCc2cn(CCNC(=O)c3ccc(C(=O)NCCn4cc(CO[C@]5(C(=O)[O-])C[C@H](O)[C@@H](NC(C)=O)[C@H]([C@H](O)[C@H](O)CNC(=O)c6ccc(-c7ccccc7)cc6)O5)nn4)cc3)nn2)(C(=O)[O-])C[C@@H]1O.[Na+].[Na+]` [Compound 125] was tested. Which rIP did it give?
A: 8

Q: For `CC(=O)N[C@H]1[C@H]([C@H](O)[C@H](O)CNC(=O)Cc2ccc3ccccc3c2)O[C@@](OCCCSCCNC(=O)c2ccc(C(=O)NCCSCCCO[C@]3(C(=O)[O-])C[C@H](O)[C@@H](NC(C)=O)[C@H]([C@H](O)[C@H](O)CNC(=O)Cc4ccc5ccccc5c4)O3)cc2)(C(=O)[O-])C[C@@H]1O.[Na+].[Na+]` [Compound 66], which rIP is on record?
A: 197
